According to patent US8101389B2, “Bacterial glutamine synthetases and methods of use” (Athenix Corp, priority 2006, dated 2012):

Columns and labels:
[1] = test system: E. coli cells with AGS1 variant AGS1m2 (pAX3422), F81S, P185S, G218S, I303N, SEQ ID NO:6; experiment: growth of E. coli on herbicide plates, ags1m2; format: cell-based; details: 50 mM glyphosate; than the other variants, except AGS1m16
Protocol: (§1) Mutants of the bacterial glutamine synthetase gene ags1 (SEQ ID NO:1) were created by error-prone mutagenesis using the GENEMORPH® Random Mutagenesis kit, and also using oligo-directed mutagenesis as known in the art. However, many methods are available for creating libraries of mutants. The resulting mutants were cloned into a pUC19 vector, electroporated into either XL-1 or DH5 alpha E. coli cells, and selected for growth on M63+ agar media containing antibiotic and 2, 10, or 20 mM glufosinate. Twenty-two clones were identified as growing on 20 mM glufosinate, and picked for further analysis.
ags1m2 was mutagenized by error-prone mutagenesis using GENEMORPH® II Random Mutagenesis kit (Stratagene) according to manufacturer's instructions. Mutagenized PCR product was digested with Sac I and Hind III, and ligated into a pUC vector, similarly digested with Sac I and Hind III. Ligations were transformed into E. coli cells, and plated onto M63+ plates containing antibiotic, and 125 mM glufosinate. Clones growing on 125 mM glufosinate plates were retested on 200 mM glufosinate plates, and compared to similar platings of ags1m1 and ags1m2. […] The DNA sequence of the ags open reading frame in pAX3439 was sequenced, and the gene designated as ags1m16. The DNA sequence of ags1m16 is represented herein as SEQ ID NO:31, and the amino acid sequence is represented herein as SEQ ID NO:32. […]

[2] = test system: E. coli cells with AGS1 variant AGS1m4 (pAX3428), A151T, V214M, S276Y, SEQ ID NO:10; experiment: growth of E. coli on herbicide plates, ags1m4; format: cell-based; details: than the other variants, except AGS1m16
Description: Mutants of the bacterial glutamine synthetase gene ags1 (SEQ ID NO:1) were created by error-prone mutagenesis using the GENEMORPH® Random Mutagenesis kit, and also using oligo-directed mutagenesis as known in the art. However, many methods are available for creating libraries of mutants. […]

N[C@@H](CCC(=O)O)C(=O)O [3] = experiment: enzymatic assay, kinetics of AGS1(AD-); format: biochemical, Serratia marcescens; details: other: Table 5
Protocol: ags1(ad-) (SEQ ID NO:43) encoding the AGS1(AD-) protein (SEQ ID NO:44), is a variant of ags1 in which the putative adenylylation site has been removed by mutating the tyrosine at position 398 of AGS1 to a phenylalanine by site directed mutagenesis.
(§2) The unmodified enzyme (AGS1) was compared to AGS1(AD-) and AGS1m17(AD-) by carrying out enzymatic assays on both enzymes following purification from E. coli. A glutamine synthetase enzyme from E. coli (GlnA) was also tested.

N[C@@H](CCC(=O)O)C(=O)O [4] = experiment: enzymatic assay, kinetics of wild-type AGS1; format: biochemical, Serratia marcescens; details: other: Table 4
Description: (§3) ags1m1 (pAX3421) and ags1m2 (pAX3422) were subcloned into E. coli expression vector pRSF1B (Invitrogen) so as to create an N-terminus encoding a 6Xhis tag, purified and characterized kinetically.
(§4) ags1m21 (SEQ ID NO:41) encodes the AGS1m21 protein (SEQ ID NO:42). AGS1m21 is a variant of AGS1 that contains a similar amino acid change identified in other variants (V214M), as well as two novel mutations (N160S and G167R). This enzyme was expressed in E. coli, purified, and the kinetic values Km(glutamate) and Ki(glufosinate) of the variant measured by enzymatic assay.
as §2

[5] = test system: pea leaf glutamine synthetase; details: Leason et al. (1982); cited from earlier work
E. coli cells [6] = experiment: Growth of E. coli transformants on M63 plates containing glufosinate; format: cell-based; details: for growth on glufosinate minimal M63+ agar media: 2, 10, 20, 50 and 100 mM glufosinate, DH5a E. coli cells
Protocol: To reconfirm that TKH2 and TKH3 confer resistance to 20 mM glufosinate, the purified plasmids were retransformed into DH5α cells. pUC18 was retransformed as a negative control. The transformation mixes were plated directly on M63 minimal plates with or without 20 mM glufosinate.
as §1
ags1m2 was mutagenized by error-prone mutagenesis using GENEMORPH® II Random Mutagenesis kit (Stratagene) according to manufacturer's instructions. Mutagenized PCR product was digested with Sac I and Hind III, and ligated into a pUC vector, similarly digested with Sac I and Hind III. Ligations were transformed into E. coli cells, and plated onto M63+ plates containing antibiotic, and 125 mM glufosinate. Clones growing on 125 mM glufosinate plates were retested on 200 mM glufosinate plates, and compared to similar platings of ags1m1 and ags1m2. […] The DNA sequence of the ags open reading frame in pAX3439 was sequenced, and the gene designated as ags1m16. The DNA sequence of ags1m16 is represented herein as SEQ ID NO:31, and the amino acid sequence is represented herein as SEQ ID NO:32. AGS1m16 differs from AGS1m2 at a single amino acid at position H212 of the protein, which is modified from Histidine (‘H’) to Asparagine (‘N’), and contains a total of five amino acid changes relative to the wild-type AGS1 (see FIG. 1 and Table 3).
Clones expressing AGS1m17, AGS1m18, AGS1m19, or AGS1m20 were all found to be able to grow on plates containing 375 mM glufosinate, whereas no growth of clones expressing AGS1m16 was observed on plates containing 375 mM glufosinate.

ags1 mutant E. coli = experiment: Complementation of a glutamine synthase mutant; format: cell-based
Description: Clones containing ags1m1 (pAX3421) and ags1m2 (pAX3422) were selected for further work.

[7] = test system: ags1 glutamine synthetase enzyme; experiment: Enzymatic activity of purified 6Xhis-tagged glutamine synthetases with and without glufosinate; format: biochemical, Serratia marcescens; details: for enzymatic activity compared with wild type AGS1: 5 minute assay, absence of glufosinate
Description: as §3

E. coli cells [8] = experiment: Growth of E. coli transformants on M63 plates containing glufosinate; format: cell-based; details: 50 mM glyphosate (so in the source); versus the other variants except AGS1m16
N[C@@H](CCC(=O)O)C(=O)O [9] = experiment: enzymatic assay, kinetics of AGS1m21; format: biochemical, Serratia marcescens; details: other: Table 4
Description: as §4

maize = experiment: Leaf protein content of T0 transgenic maize plants (Bradford assay); format: in vivo
Description: synags1m16 (SEQ ID NO:47) is an alternate DNA sequence that encodes the AGS1m16 protein (SEQ ID NO:32). synags1m16 was cloned into a shuttle vector to guide overexpression of AGS1m16 in maize. The vector places overexpression of synags1m16 under the control of the Trp5 promoter (U.S. application Ser. No. 11/377,318, filed Mar. 16, 2006 and herein incorporated by reference in its entirety).
Nine transgenic maize plants containing ags1m16 were generated. Protein expression of the AGS1m16 protein was confirmed by Western blot for each of these events.
Nitrogen use efficiency was evaluated for these events by determining the protein content of leaf samples isolated from the T0 plants after four weeks of growth in the greenhouse.
The protein in leaf samples was quantified as follows: Fifty milligrams of leaf material (fresh weight, no midrib) were freeze-dried for dry weight determination. The dehydrated leaf tissue was then ground in the presence of fresh Milli Q water using a MiniBeadbeater-96™ and 2.3 mm stainless-steel beads. The ground leaf tissue was filtered through a 0.45 μm Polyvinylidene Fluoride (PVDF) filter. Bio-Rad Protein Dye was added to leaf samples diluted in water, and a Bradford protein assay was performed and read in the spectrophotometer at 595 nm vs. internal protein standards included in the assay. […]

N[C@@H](CCC(=O)O)C(=O)O [10] = experiment: enzymatic assay, kinetics of AGS1m17(AD-); format: biochemical, Serratia marcescens; details: other: Table 5
Protocol: ags1m17(ad-) (SEQ ID NO:45) encoding the AGS1m17(AD-) protein (SEQ ID NO:46), is a variant of ags1m17 in which the putative adenylylation site has been removed by mutating the tyrosine at position 398 of AGS1 to a phenylalanine by site directed mutagenesis.
as §2

## O=C(O)CNCP(=O)(O)O [glyphosate]
[1]
  colony growth on 50 mM glyphosate versus other variants: grow more quickly
[2]
  colony growth on 50 mM glyphosate versus other variants: grow more quickly

## Serratia marcescens glutamine synthetase AGS1 variant AGS1(AD-), tyrosine 398 to phenylalanine, SEQ ID NO:44 (Serratia marcescens; Y398F)
N[C@@H](CCC(=O)O)C(=O)O [3]
  Km: 3.4 mM

## Serratia marcescens ATX 20345 glutamine synthetase AGS1, wild type, SEQ ID NO:2 (Serratia marcescens)
N[C@@H](CCC(=O)O)C(=O)O [4]
  Km: 3.4 mM
  Vmax: 0.10 nmol/min/µg
  kcat: 0.08 s⁻¹

## CS(=N)(=O)CCC(N)C(=O)O (stereo not drawn) [Methione sulfoximine (MSO), Methione sulfoximine]
[5]
  inhibition of pea leaf glutamine synthetase: mixed competitive inhibitor

## ags1m14: ags1 variant V150M, D166N, V214M, G289S, A420V; SEQ ID NO:27/28
E. coli cells [6]
  growth on glufosinate minimal M63+ agar media: grow on 2, 10, 20, 50, and 100 mM glufosinate

## ags1m7: ags1 variant G168C, V214M, K395R; SEQ ID NO:13/14
E. coli cells [6]
  growth on glufosinate minimal M63+ agar media: grow on 2, 10, 20, 50, and 100 mM glufosinate

## ags1m2: ags1 variant F81S, P185S, G218S, I303N; SEQ ID NO:5/6
ags1 mutant E. coli
  complementation of ags1 mutant E. coli: complement ags1 mutant E. coli
[7]
  enzymatic activity compared with wild type AGS1: relatively little enzymatic activity
[7]; overnight
  enzymatic reaction overnight: appeared to go to completion overnight
E. coli cells [8]
  speed of colony growth on 50 mM glyphosate: grow more quickly

## ags1m12: ags1 variant V207I, V214M; SEQ ID NO:23/24
E. coli cells [6]
  growth on glufosinate minimal M63+ agar media: grow on 2, 10, 20, 50, and 100 mM glufosinate

## ags1m1: glufosinate resistant ags1 variant V39I, V214M; SEQ ID NO:3/4
E. coli cells [6]
  growth on glufosinate minimal M63+ agar media: grow on 2, 10, 20, 50, and 100 mM glufosinate
ags1 mutant E. coli
  complementation of ags1 mutant E. coli: complement ags1 mutant E. coli
ags1 mutant E. coli; comparison of ags1m1 with ags1m2
  growth rate in complementation of ags1 mutant E. coli: growing at a faster rate than ags1m2
[7]
  enzymatic activity compared with wild type AGS1: indistinguishable from wild type enzyme

## Serratia marcescens glutamine synthetase AGS1 variant AGS1m21, N160S, G167R, V214M, SEQ ID NO:42 (Serratia marcescens; G167R/N160S/V214M)
N[C@@H](CCC(=O)O)C(=O)O [9]
  Km: 12.0 mM

## ags1m16: ags1 variant F81S, P185S, H212N, G218S, I303N; SEQ ID NO:31/32
E. coli cells [6]
  resistance conferred upon E. coli, compared among variants: most resistance
E. coli cells [6]; M63+ plates, 200 mM glufosinate
  growth on 200 mM glufosinate plates: ability to grow on 200 mM glufosinate plates
maize; average of nine ags1m16 events
  Total protein, Avg.: 16.8 mg/g dry
maize; average, versus control plants without ags1m16
  higher protein content than the control plants: 24%

## Serratia marcescens glutamine synthetase AGS1 variant AGS1m17(AD-), F81S, P185S, H212T, V214A, G218S, I303N plus tyrosine 398 to phenylalanine, SEQ ID NO:46 (Serratia marcescens; F81S/G218S/H212T/I303N/P185S/V214A/Y398F)
N[C@@H](CCC(=O)O)C(=O)O [10]
  Km: 14.1 mM

## ags1m4: ags1 variant A151T, V214M, S276Y; SEQ ID NO:9/10
E. coli cells [8]
  speed of colony growth on 50 mM glyphosate: grow more quickly

## ags1m11: ags1 variant G56A, V214E; SEQ ID NO:21/22
E. coli cells [6]
  growth on glufosinate minimal M63+ agar media: grow on 2, 10, 20, 50, and 100 mM glufosinate
E. coli cells [8]
  speed of colony growth on 50 mM glyphosate: grow more quickly
